US11572369B2, “Bicyclic pyridine compositions and methods of using the same for cancer therapy” (UNIVERSITY OF SOUTH CAROLINA, priority 2019, dated 2023)

Key:
[1] = tested on: CDK8/19; experiment: NFκB Activity Assay (NFκB luciferase reporter, parental 293 cells); type: cell-based; conditions: read-out: Inhibition Potency HEK293-NFkB-Luc Assay
[2] = tested on: MV4-11 cells; experiment: MV4-11-Luc proliferation assay; conditions: Homo sapiens, MV4-11, read-out: Inhibition Potency MV4-11-Luc Assay
[3] = tested on: 4T1 murine triple-negative breast cancer; experiment: 4T1 TNBC lung metastasis survival after primary tumor removal; type: in vivo, mouse; conditions: 25 mg/kg oral b.i.d. after removal of primary tumor
[4] = tested on: luciferase-expressing MV4-11 cells; experiment: MV4-11 leukemia in NSG mice, bioluminescence imaging; type: in vivo, mouse; conditions: for inhibition of leukemia growth (BLI): 23 days, NSG mice
Description: Assay protocol. For in vivo studies, 7-week-old female NSG mice (Jackson Laboratories) were injected with 2×10^6 luciferase-expressing MV4-11 cells in the tail vein. Following engraftment, BLI was performed on the inoculated mice 5 days after cell inoculation. After BLI, the mice were sorted into two matching cohorts of 10 mice and one cohort of 5 mice. BLI detection was done with IVIS Lumina II Series Hardware for In-Vivo Imaging with optional XFOV lens and Living Image software. The IVIS setting for sorting mice into cohorts was set for high sensitivity: Bin 8, F1.2, 180 sec. Subsequent exposures (week 1-5) were set for increased resolution: Bin 4, F1.2, 120 sec.
Treatment was initiated on day 6 following cell-inoculation and continued for 23 days. Ten mice received Vehicle only (5% carboxylmethyl cellulose) by gavage (200 μl). […] This diet matches the diet used for normal mouse feeding, with the exception of added dye and 15u. The control MV4-11 xenografted mice (Vehicle) developed a vigorous tumor population as detected by BLI (FIG. 10B-10C). […] Survival of the mice post treatment was monitored.

[5] = tested on: MYC-CAP-CR cells; experiment: Short-term cell proliferation assay, MYC-CAP-CR; type: cell-based, murine; conditions: androgen-containing media
[6] = tested on: PSA expression in CRPC cell line C4-2; experiment: PSA expression in C4-2 cell culture supernatant; type: cell-based; conditions: C4-2, 96 h, read-out: IC50, suppression of PSA expression
Excerpt: CDK8/19 inhibition decreases the expression of certain androgen-receptor (AR) inducible genes including PSA, the most common marker of prostate cancer, and the growth of castration-refractory prostate cancers (CRPC).

| SMILES | IC50 [1] | IC50 [2] | mouse survival of the metastatic disease [3] | inhibition of leukemia growth (BLI) ([4]; 30 mg/kg twice daily by gavage) | inhibition of leukemia growth (BLI) ([4]; medicated chow containing 15u at 1 g/kg) | survival post treatment ([4]; oral gavage, FIG. 10D) | MYC-CAP-CR cell growth [5] | IC50 [6] |
| --- | --- | --- | --- | --- | --- | --- | --- | --- |
| [2H]C([2H])([2H])N(C(=O)c1ccc(N2CCCN(c3ccnc4sc(C(N)=O)c(N)c34)CC2)cc1)C([2H])([2H])[2H] [15u_D6, 3-amino-4-(4-(4-(bis(methyl-d3)carbamoyl)phenyl)-1,4-diazepan-1-yl)thieno[2,3-b]pyridine-2-carboxamide] | 7.7 nM |  |  |  |  |  |  |  |
| CN(C)C(=O)c1ccc(N2CCCN(c3ccnc4sc(C(N)=O)c(N)c34)CC2)cc1 [15u, 3-amino-4-(4-(4-(dimethylcarbamoyl)phenyl)-1,4-diazepan-1-yl)thieno[2,3-b]pyridine-2-carboxamide] |  | 30 nM | significantly increased mouse survival | 94% | 99.7% | superior survival rates | little effect | 27.6 nM |
